Source: patent US20220348595A1, “COMPOUNDS AND METHODS FOR THE TARGETED DEGRADATION OF ESTROGEN RECEPTORS” (Endotarget Inc., priority 2021, published 2022)

Columns and labels:
[1] = system: MCF-7 breast cancer cells; experiment: MCF-7 proliferation / cell viability assay; assay type: cell-based; conditions: Homo sapiens, MCF7; MCF-7 proliferation with 0.1 nM 17-beta estradiol; read-out: IC50 (anti-proliferation)
Summary of the method: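 Survival ratio, with vehicle (DMSO) as 100%, was derived from Coulter-counted viable cell numbers. Cells were grown in 5% FBS DMEM and dosed for 5 days across six concentrations between 10^−10 M and 10^−5 M.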

ST1799 PDX tumor = experiment: ST1799 patient derived breast tumor xenograft; assay type: in vivo; conditions: single agent versus vehicle control, p=0.0323; athymic nude female mice
Excerpt: In Vivo Efficacy of Exemplary Compound 69 in ST1799 Patient Derived Breast Tumor Xenocraft
Patient-Derived Xenograft tumor fragments were harvested from host animals and implanted into 6-12 week old athymic nude female mice (Charles River NU(NCr)-Foxn1^nu). Treatment initiated at a mean tumor volume of approximately 175-300 mm^3.

ERα = molecular target: T1, ERα (Homo sapiens, UniProt P03372); experiment: ER degradation in MCF-7 cells (Western blot); assay type: cell-based; conditions: for DC50: ER degradation, 24 hours; for Dmax: MCF7, Maximal ER degradation, read-out: Dmax
T1 construct: endogenous in cells; host or cells: MCF-7
T1 sequence (P03372 1-595): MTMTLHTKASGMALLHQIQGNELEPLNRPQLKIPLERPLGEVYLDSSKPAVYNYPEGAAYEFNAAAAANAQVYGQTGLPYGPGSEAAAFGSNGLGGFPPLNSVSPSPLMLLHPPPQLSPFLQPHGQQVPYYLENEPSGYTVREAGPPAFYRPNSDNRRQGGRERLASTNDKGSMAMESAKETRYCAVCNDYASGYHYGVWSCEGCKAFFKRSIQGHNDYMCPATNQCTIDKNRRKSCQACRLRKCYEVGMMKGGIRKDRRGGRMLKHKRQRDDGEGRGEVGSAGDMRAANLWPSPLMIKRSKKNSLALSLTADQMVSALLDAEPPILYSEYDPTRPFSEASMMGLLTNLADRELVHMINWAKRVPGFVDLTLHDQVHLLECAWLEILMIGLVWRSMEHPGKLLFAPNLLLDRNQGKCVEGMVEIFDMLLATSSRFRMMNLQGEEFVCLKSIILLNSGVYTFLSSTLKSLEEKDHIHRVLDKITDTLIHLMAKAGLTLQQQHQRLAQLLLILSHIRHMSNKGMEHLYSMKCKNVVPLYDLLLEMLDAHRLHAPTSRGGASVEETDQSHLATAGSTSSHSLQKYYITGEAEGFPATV
Summary of the method: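 ERα levels assessed by Western blot (50 μg lysate protein, infrared scanner) after 24-hour exposure of MCF-7 cells to varied compound concentrations. Values reported as DC50, the concentration halving ER expression, and Dmax, the maximal ER reduction achieved across tested concentrations.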

ER = molecular target: T2, ER (Homo sapiens, UniProt P03372); experiment: ER antagonism (T47D ERE luciferase), T47d-kb-Luc cells; assay type: cell-based; conditions: read-out: IC50 (ER antagonistm)
T2 construct: endogenous in cells; host or cells: T47d-kb-Luc (T47D stably transfected with a luciferase reporter gene only)
T2 sequence (P03372 1-595): T1 sequence (P03372 1-595)
Summary of the method: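 Five sample concentrations, each in quadruplicate and repeated in at least three experiments, were tested for blocking of estradiol activity. Values were expressed relative to the estradiol control. The cell system was the T47d-kb-Luc stable breast cancer line.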

IC50 [1]	DC50 (ERα)	Dmax (ERα)	IC50 (ER)	SMILES	tumor growth inhibition (ST1799 PDX tumor)
< 10 nM	< 10 nM	> 90%	< 10 nM	CC/C(=C(/c1ccc(OCCN2CCN(CC3CCN(c4ccc5c(c4)CN([C@H]4CCC(=O)NC4=O)C5=O)CC3)CC2)cc1)c1ccc(B(O)O)cc1)c1ccccc1 [Compound 69]	statistically significant tumor growth inhibition
< 10 nM	< 10 nM	> 90%	< 10 nM	CC/C(=C(\c1ccc(B(O)O)cc1)c1ccc(N2CCN(C(=O)N3CCC(CN4CCN(c5ccc6c(c5)CN(C5CCC(=O)NC5=O)C6=O)CC4)CC3)CC2)cc1)c1ccccc1 (centres unmarked) [Compound 114, (Z)-(4-(1-(4-(4-(4-((4-(2-(2,6-dioxopiperidin-3-yl)-1-oxoisoindolin-5-yl)piperazin-1-yl)methyl)piperidine-1-carbonyl)piperazin-1-yl)phenyl)-2-phenylbut-1-en-1-yl)phenyl)boronic acid]	
< 10 nM	< 10 nM	> 90%	< 10 nM	CC/C(=C(/c1ccc(O)cc1)c1ccc(N2CCN(C(=O)N3CCC(CN4CCN(c5ccc6c(c5)CN(C5CCC(=O)NC5=O)C6=O)CC4)CC3)CC2)cc1)c1ccccc1 (centres unmarked) [Compound 115, (Z)-3-(5-(4-((1-(4-(4-(1-(4-hydroxyphenyl)-2-phenylbut-1-en-1-yl)phenyl)piperazine-1-carbonyl)piperidin-4-yl)methyl)piperazin-1-yl)-1-oxoisoindolin-2-yl)piperidine-2,6-dione]	
< 10 nM	< 10 nM	> 90%	< 10 nM	CC/C(=C(/c1ccc(B(O)O)cc1)c1ccc(N2CCN(C(=O)N3CCC(CN4CCN(c5ccc6c(c5)CN(C5CCC(=O)NC5=O)C6=O)CC4)CC3)CC2)cc1)c1ccccc1 (centres unmarked) [Compound 116, (E)-(4-(1-(4-(4-(4-((4-(2-(2,6-dioxopiperidin-3-yl)-1-oxoisoindolin-5-yl)piperazin-1-yl)methyl)piperidine-1-carbonyl)piperazin-1-yl)phenyl)-2-phenylbut-1-en-1-yl)phenyl)boronic acid]	
